#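 Test compounds were applied to cells in 96-well plates for 48 hours at 5 doses. GI50 = concentration required for 50% inhibition of growth. The concentration for full growth arrest is given as TGI.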
# Key:
# Assay in all cases: NCI anticancer screen, dose series, 48 h
# 786-0 renal = tested on: 786-0 renal
# CAKI-1 renal = tested on: CAKI-1 renal
# DU-145 prostate = tested on: DU-145 prostate
# A549 NSCLC = tested on: A549 NSCLC
# K-562 leukemia = tested on: K-562 leukemia
# SR leukemia = tested on: SR leukemia
# SK-MEL-5 melanoma = tested on: SK-MEL-5 melanoma
# IGROV1 ovarian = tested on: IGROV1 ovarian
# CCRF-CEM leukemia = tested on: CCRF-CEM leukemia
# SF-268 CNS = tested on: SF-268 CNS
# RXF 393 renal = tested on: RXF 393 renal
# SN12C renal = tested on: SN12C renal
# SK-MEL-28 melanoma = tested on: SK-MEL-28 melanoma
# HCT-15 colon = tested on: HCT-15 colon
# OVCAR-3 ovarian = tested on: OVCAR-3 ovarian
# UACC-62 melanoma = tested on: UACC-62 melanoma
# KM12 colon = tested on: KM12 colon
# SF-295 CNS = tested on: SF-295 CNS
# HOP-62 NSCLC = tested on: HOP-62 NSCLC
# MALME-3M melanoma = tested on: MALME-3M melanoma
# SK-OV-3 ovarian = tested on: SK-OV-3 ovarian
# HS 578T breast = tested on: HS 578T breast
# OVCAR-5 ovarian = tested on: OVCAR-5 ovarian
# MOLT-4 leukemia = tested on: MOLT-4 leukemia
# HCC-2998 colon = tested on: HCC-2998 colon
# UACC-257 melanoma = tested on: UACC-257 melanoma
# NCI-H522 lung = tested on: NCI-H522 lung
# A498 renal = tested on: A498 renal
# HOP-92 NSCLC = tested on: HOP-92 NSCLC
# TK-10 renal = tested on: TK-10 renal
# M14 melanoma = tested on: M14 melanoma
# OVCAR-4 ovarian = tested on: OVCAR-4 ovarian
# SW-620 colon = tested on: SW-620 colon
# ACHN renal = tested on: ACHN renal
# HL-60(TB) leukemia = tested on: HL-60(TB) leukemia
# PC-3 prostate = tested on: PC-3 prostate
# LOX IMVI melanoma = tested on: LOX IMVI melanoma
# HT29 colon = tested on: HT29 colon
# MDA-MB-435 = tested on: MDA-MB-435
# T-47D breast = tested on: T-47D breast
# SNB-75 CNS = tested on: SNB-75 CNS
# NCI-H460 lung = tested on: NCI-H460 lung
# RPMI-8226 leukemia = tested on: RPMI-8226 leukemia
# SNB-19 CNS = tested on: SNB-19 CNS
# NCI-H23 lung = tested on: NCI-H23 lung
# OVCAR-8 ovarian = tested on: OVCAR-8 ovarian
# SF-539 CNS = tested on: SF-539 CNS
# NCI-H226 lung = tested on: NCI-H226 lung
# COLO 205 colon = tested on: COLO 205 colon
# MDA-MB-231 breast = tested on: MDA-MB-231 breast
# U251 CNS = tested on: U251 CNS
# UO-31 renal = tested on: UO-31 renal
# NCI/ADR-RES ovarian = tested on: NCI/ADR-RES ovarian
# HCT-116 colon = tested on: HCT-116 colon
# BT-549 breast = tested on: BT-549 breast
# MCF7 breast = tested on: MCF7 breast
compound,measurement,setting,value
CC1c2ccccc2CCN1c1ccc(CO)c(Cl)c1 (configuration not stated),GI50,786-0 renal,16.7 µM
same,TGI,786-0 renal,43.1 µM
same,GI50,CAKI-1 renal,3.46 µM
same,TGI,CAKI-1 renal,50.3 µM
same,GI50,DU-145 prostate,11.6 µM
same,TGI,DU-145 prostate,> 53 µM
same,GI50,A549 NSCLC,0.759 µM
same,TGI,A549 NSCLC,17.1 µM
same,GI50,K-562 leukemia,0.385 µM
same,TGI,K-562 leukemia,> 100 µM
same,GI50,SR leukemia,28.3 µM
same,TGI,SR leukemia,> 85.9 µM
same,GI50,SK-MEL-5 melanoma,13.8 µM
same,TGI,SK-MEL-5 melanoma,27.1 µM
same,GI50,IGROV1 ovarian,0.0488 µM
same,TGI,IGROV1 ovarian,0.307 µM
same,GI50,CCRF-CEM leukemia,30.9 µM
same,TGI,CCRF-CEM leukemia,> 100 µM
same,GI50,SF-268 CNS,40.8 µM
same,TGI,SF-268 CNS,> 100 µM
same,GI50,RXF 393 renal,1.2 µM
same,TGI,RXF 393 renal,23.8 µM
same,GI50,SN12C renal,15.3 µM
same,TGI,SN12C renal,> 57 µM
same,GI50,SK-MEL-28 melanoma,17.1 µM
same,TGI,SK-MEL-28 melanoma,63.7 µM
same,GI50,HCT-15 colon,13.3 µM
same,TGI,HCT-15 colon,53.3 µM
same,GI50,OVCAR-3 ovarian,0.171 µM
same,TGI,OVCAR-3 ovarian,3.36 µM
same,GI50,UACC-62 melanoma,0.15 µM
same,TGI,UACC-62 melanoma,14.5 µM
same,GI50,KM12 colon,22.6 µM
same,TGI,KM12 colon,> 72.5 µM
same,GI50,SF-295 CNS,0.274 µM
same,TGI,SF-295 CNS,31.4 µM
same,GI50,HOP-62 NSCLC,1.67 µM
same,TGI,HOP-62 NSCLC,25.3 µM
same,GI50,MALME-3M melanoma,22.7 µM
same,TGI,MALME-3M melanoma,54.6 µM
same,GI50,SK-OV-3 ovarian,1.61 µM
same,TGI,SK-OV-3 ovarian,10.7 µM
same,GI50,HS 578T breast,21.9 µM
same,TGI,HS 578T breast,70.7 µM
same,GI50,OVCAR-5 ovarian,0.0427 µM
same,TGI,OVCAR-5 ovarian,0.187 µM
same,GI50,MOLT-4 leukemia,24.6 µM
same,TGI,MOLT-4 leukemia,77.7 µM
same,GI50,HCC-2998 colon,2.95 µM
same,TGI,HCC-2998 colon,17.6 µM
same,GI50,UACC-257 melanoma,0.0412 µM
same,TGI,UACC-257 melanoma,0.191 µM
same,GI50,NCI-H522 lung,17.4 µM
same,TGI,NCI-H522 lung,50.5 µM
same,GI50,A498 renal,0.0149 µM
same,TGI,A498 renal,0.0888 µM
same,GI50,HOP-92 NSCLC,0.19 µM
same,TGI,HOP-92 NSCLC,16.6 µM
same,GI50,TK-10 renal,0.0346 µM
same,TGI,TK-10 renal,0.187 µM
same,GI50,M14 melanoma,22.5 µM
same,TGI,M14 melanoma,58.2 µM
same,GI50,OVCAR-4 ovarian,0.049 µM
same,TGI,OVCAR-4 ovarian,2.7 µM
same,GI50,SW-620 colon,0.203 µM
same,TGI,SW-620 colon,> 100 µM
same,GI50,ACHN renal,22.6 µM
same,TGI,ACHN renal,> 81 µM
same,GI50,HL-60(TB) leukemia,21.3 µM
same,TGI,HL-60(TB) leukemia,70.2 µM
same,GI50,PC-3 prostate,19.6 µM
same,TGI,PC-3 prostate,> 83.5 µM
same,GI50,LOX IMVI melanoma,22.2 µM
same,TGI,LOX IMVI melanoma,49.8 µM
same,GI50,HT29 colon,0.383 µM
same,TGI,HT29 colon,25.2 µM
same,GI50,MDA-MB-435,17.3 µM
same,TGI,MDA-MB-435,53.5 µM
same,GI50,T-47D breast,0.053 µM
same,TGI,T-47D breast,0.311 µM
same,GI50,SNB-75 CNS,20 µM
same,TGI,SNB-75 CNS,75 µM
same,GI50,NCI-H460 lung,0.0864 µM
same,TGI,NCI-H460 lung,3.3 µM
same,GI50,RPMI-8226 leukemia,1.94 µM
same,TGI,RPMI-8226 leukemia,47.5 µM
same,GI50,SNB-19 CNS,34.5 µM
same,TGI,SNB-19 CNS,> 100 µM
same,GI50,NCI-H23 lung,21.8 µM
same,TGI,NCI-H23 lung,> 72.3 µM
same,GI50,OVCAR-8 ovarian,5.77 µM
same,TGI,OVCAR-8 ovarian,52.6 µM
same,GI50,SF-539 CNS,19.1 µM
same,TGI,SF-539 CNS,47.3 µM
same,GI50,NCI-H226 lung,0.0491 µM
same,TGI,NCI-H226 lung,0.228 µM
same,GI50,COLO 205 colon,0.19 µM
same,TGI,COLO 205 colon,0.626 µM
same,GI50,MDA-MB-231 breast,15.5 µM
same,TGI,MDA-MB-231 breast,58.4 µM
same,GI50,U251 CNS,0.318 µM
same,TGI,U251 CNS,> 46.1 µM
same,GI50,UO-31 renal,14.6 µM
same,TGI,UO-31 renal,65.3 µM
same,GI50,NCI/ADR-RES ovarian,13.1 µM
same,TGI,NCI/ADR-RES ovarian,50.5 µM
same,GI50,HCT-116 colon,0.0345 µM
same,TGI,HCT-116 colon,12.6 µM
same,GI50,BT-549 breast,17.2 µM
same,TGI,BT-549 breast,37.7 µM
same,GI50,MCF7 breast,0.0565 µM
same,TGI,MCF7 breast,23.2 µM

# From PubChem BioAssay (NCI)
